Measurements published in US11111245B2, “Derivatives of N-cycloalkyl/heterocycloalkyl-4-(imidazo[1,2-a]pyridine)pyrimidin-2-amine as therapeutic agents” (Aucentra Therapeutics Pty Ltd, priority 2017, dated 2021).

Legend:
CDKs and other kinases [1] = target: T1, CDKs and other kinases (Homo sapiens, UniProt P50613); test: Radiometric kinase assay (Eurofins Pharma Discovery or Reaction Biology Corporation Kinase Profiler); assay type: biochemical; details: CDK7H; for remaining activity at 10 µM: compound at 10 μM, read-out: residual activity (%) at 10 μM CDK7H; for Ki: read-out: CDK inhibition, Ki (μM) CDK7H
T1 construct: other: CDK7H; residual activity (%) at 10 μM CDK7H; compound at 10 μM
T1 sequence (P50613 whole entry): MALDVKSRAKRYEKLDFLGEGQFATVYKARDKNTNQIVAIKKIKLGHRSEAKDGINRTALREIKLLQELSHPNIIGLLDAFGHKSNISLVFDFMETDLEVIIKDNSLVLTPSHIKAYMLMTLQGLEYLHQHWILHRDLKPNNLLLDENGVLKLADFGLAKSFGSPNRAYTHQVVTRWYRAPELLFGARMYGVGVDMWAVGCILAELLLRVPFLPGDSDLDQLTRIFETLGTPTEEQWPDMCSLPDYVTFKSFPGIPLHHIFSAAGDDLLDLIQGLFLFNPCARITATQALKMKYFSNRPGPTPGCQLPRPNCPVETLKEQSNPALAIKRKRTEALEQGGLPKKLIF
Summary of the method: (§1)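 Other CDKs and further kinases were profiled externally by radiometric assay. In-house ADP Glo assays covered CDK4/D1 and CDK6/D3 (RB-CTF substrate, pH 7.5 Tris buffer with MgCl2, DTT, BSA) and CDK9/T1 (RBER-IRStide substrate), 40 min at 37° C.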

CDKs and other kinases [2] = target: T2, CDKs and other kinases (Homo sapiens, UniProt P24941); test: as above; assay type: biochemical; details: CDK2A; for remaining activity at 10 µM: compound at 10 μM, read-out: residual activity (%) at 10 μM CDK2A; for Ki: read-out: CDK inhibition, Ki (μM) CDK2A
T2 construct: other: CDK2A; residual activity (%) at 10 μM CDK2A; compound at 10 μM
Summary of the method: as §1

CDKs and other kinases [3] = target: T3, CDKs and other kinases (Homo sapiens, UniProt P06493); test: as above; assay type: biochemical; details: CDK1B; for remaining activity at 10 µM: compound at 10 μM, read-out: residual activity (%) at 10 μM CDK1B; for Ki: read-out: CDK inhibition, Ki (μM) CDK1B
T3 construct: other: CDK1B; residual activity (%) at 10 μM CDK1B; compound at 10 μM
T3 sequence (P06493 whole entry): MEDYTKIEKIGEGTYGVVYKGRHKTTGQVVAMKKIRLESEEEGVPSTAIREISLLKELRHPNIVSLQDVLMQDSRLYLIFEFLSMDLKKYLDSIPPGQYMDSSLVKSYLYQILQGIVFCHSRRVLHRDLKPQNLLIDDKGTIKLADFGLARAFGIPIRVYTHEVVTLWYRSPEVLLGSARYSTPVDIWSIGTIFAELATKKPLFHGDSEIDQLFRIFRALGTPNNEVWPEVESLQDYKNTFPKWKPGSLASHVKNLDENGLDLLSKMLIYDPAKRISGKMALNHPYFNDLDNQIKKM
Summary of the method: as §1

CDK6/D3 = CDK6/D3 (Homo sapiens, UniProt Q00534); test: ADP Glo Kinase assay CDK6/D3; assay type: biochemical; details: CDK6D3; for remaining activity at 10 µM: compound at 10 μM, read-out: residual activity (%) at 10 μM CDK6D3
Sequence of CDK6/D3 (Q00534 whole entry): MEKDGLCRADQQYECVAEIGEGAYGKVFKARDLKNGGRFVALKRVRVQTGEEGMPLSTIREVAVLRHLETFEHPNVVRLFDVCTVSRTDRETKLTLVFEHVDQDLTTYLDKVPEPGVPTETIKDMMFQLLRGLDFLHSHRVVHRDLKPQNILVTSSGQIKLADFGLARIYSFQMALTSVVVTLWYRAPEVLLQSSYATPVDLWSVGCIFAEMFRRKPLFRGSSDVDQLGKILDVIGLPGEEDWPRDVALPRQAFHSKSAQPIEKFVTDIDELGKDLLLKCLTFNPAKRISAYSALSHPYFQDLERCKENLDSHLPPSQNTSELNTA
Sequence of CDK6/D3 (P30281 whole entry partner): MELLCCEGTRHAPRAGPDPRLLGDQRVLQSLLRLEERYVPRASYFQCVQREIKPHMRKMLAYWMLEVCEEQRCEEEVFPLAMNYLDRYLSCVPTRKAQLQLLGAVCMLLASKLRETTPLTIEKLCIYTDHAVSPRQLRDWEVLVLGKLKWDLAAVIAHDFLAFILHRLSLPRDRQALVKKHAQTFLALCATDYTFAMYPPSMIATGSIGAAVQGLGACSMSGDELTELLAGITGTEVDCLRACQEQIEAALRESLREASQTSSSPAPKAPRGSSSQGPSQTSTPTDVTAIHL
Summary of the method: as §1

CDK9/T1 = CDK9/T1 (Homo sapiens, UniProt P50750); test: ADP Glo Kinase assay CDK9/T1; assay type: biochemical; details: CDK9T1; read-out: CDK inhibition, Ki (μM) CDK9T1
Sequence of CDK9/T1 (P50750 whole entry): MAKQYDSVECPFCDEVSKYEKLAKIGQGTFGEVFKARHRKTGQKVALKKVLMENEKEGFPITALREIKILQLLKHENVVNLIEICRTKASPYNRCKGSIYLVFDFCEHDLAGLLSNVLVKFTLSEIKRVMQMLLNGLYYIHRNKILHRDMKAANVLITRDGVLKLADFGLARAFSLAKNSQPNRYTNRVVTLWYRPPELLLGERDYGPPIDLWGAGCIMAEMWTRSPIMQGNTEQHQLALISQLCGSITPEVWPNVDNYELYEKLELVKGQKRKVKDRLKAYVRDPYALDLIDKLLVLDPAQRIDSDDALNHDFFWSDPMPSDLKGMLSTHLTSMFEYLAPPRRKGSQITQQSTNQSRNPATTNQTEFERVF
Sequence of CDK9/T1 (O60563 whole entry partner): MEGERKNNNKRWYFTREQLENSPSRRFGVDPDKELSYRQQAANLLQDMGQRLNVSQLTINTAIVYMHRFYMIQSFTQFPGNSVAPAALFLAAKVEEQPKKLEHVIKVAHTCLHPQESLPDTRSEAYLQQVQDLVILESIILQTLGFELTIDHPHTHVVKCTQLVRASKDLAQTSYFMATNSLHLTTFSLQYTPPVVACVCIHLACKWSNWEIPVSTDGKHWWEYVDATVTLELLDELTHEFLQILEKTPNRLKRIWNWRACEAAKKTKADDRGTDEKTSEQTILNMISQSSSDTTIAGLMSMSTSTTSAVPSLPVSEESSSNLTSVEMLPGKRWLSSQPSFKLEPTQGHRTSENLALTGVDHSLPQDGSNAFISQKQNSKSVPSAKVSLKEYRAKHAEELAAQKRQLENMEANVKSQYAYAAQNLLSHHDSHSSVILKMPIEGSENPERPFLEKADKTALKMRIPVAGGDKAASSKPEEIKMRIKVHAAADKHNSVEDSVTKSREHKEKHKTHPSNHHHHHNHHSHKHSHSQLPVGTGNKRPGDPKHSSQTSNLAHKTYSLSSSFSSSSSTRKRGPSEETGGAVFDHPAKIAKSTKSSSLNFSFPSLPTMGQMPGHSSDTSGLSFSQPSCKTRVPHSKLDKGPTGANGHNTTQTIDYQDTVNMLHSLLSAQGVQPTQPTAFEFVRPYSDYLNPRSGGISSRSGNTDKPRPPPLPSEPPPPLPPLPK
Summary of the method: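 CDK4/D1 and CDK6/D3 were run in […] Tris pH 7.5, 20 mM MgCl2, 0.4 mM DTT, 0.1 mg/ml BSA with RB-CTF substrate; CDK9/T1 used RBER-IRStide. ATP-started reactions ran 40 min at 37° C, with ADP Glo luminescence read-out. IC50 came from 4-parameter fits; Ki from Km (ATP) and IC50.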

CDK4/D1 = CDK4/D1 (Homo sapiens, UniProt P11802); test: ADP Glo Kinase assay CDK4/D1; assay type: biochemical; details: CDK4D1; for remaining activity at 10 µM: compound at 10 μM, read-out: residual activity (%) at 10 μM CDK4D1; for Ki: read-out: CDK inhibition, Ki (μM) CDK4D1
Sequence of CDK4/D1 (P11802 whole entry): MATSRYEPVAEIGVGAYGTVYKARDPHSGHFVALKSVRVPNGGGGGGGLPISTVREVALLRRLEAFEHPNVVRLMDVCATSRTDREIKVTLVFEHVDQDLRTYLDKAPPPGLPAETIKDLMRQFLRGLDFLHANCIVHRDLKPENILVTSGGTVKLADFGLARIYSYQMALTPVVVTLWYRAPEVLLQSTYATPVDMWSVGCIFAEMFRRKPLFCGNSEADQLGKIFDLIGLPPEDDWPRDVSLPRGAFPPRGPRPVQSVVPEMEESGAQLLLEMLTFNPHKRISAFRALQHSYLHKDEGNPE
Sequence of CDK4/D1 (P24385 whole entry partner): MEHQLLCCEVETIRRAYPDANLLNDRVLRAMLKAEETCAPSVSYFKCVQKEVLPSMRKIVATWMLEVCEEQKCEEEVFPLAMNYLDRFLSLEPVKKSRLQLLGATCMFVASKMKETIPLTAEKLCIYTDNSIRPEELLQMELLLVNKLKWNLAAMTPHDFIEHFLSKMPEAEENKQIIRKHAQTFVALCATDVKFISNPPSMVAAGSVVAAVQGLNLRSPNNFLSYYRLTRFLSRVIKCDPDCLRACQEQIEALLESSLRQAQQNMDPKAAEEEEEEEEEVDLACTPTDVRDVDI
Summary of the method: as §1

leukemia cell lines = test: Resazurin cell viability assay on leukemia cell lines (72 h growth inhibition, GI50); assay type: cell-based; details: Homo sapiens, MV4-11 cells
Summary of the method: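 Standard published viability protocols apply here, MTT-based for solid tumour cells and resazurin-based for leukaemia cells, with 50% growth inhibition concentrations derived through non-linear regression.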

| Structure (SMILES) | remaining activity at 10 µM (CDKs and other kinases [1]) [%] | remaining activity at 10 µM (CDKs and other kinases [2]) [%] | remaining activity at 10 µM (CDKs and other kinases [3]) [%] | remaining activity at 10 µM (CDK6/D3) [%] | Ki (CDK9/T1) [µM] | remaining activity at 10 µM (CDK4/D1) [%] | GI50 (leukemia cell lines) [µM] | Ki (CDKs and other kinases [1]) [µM] | Ki (CDKs and other kinases [2]) [µM] | Ki (CDKs and other kinases [3]) [µM] | Ki (CDK4/D1) [µM] | Ki (CDK6/D3; read-out: CDK inhibition, Ki (μM) CDK6D3) [µM] |
| --- | --- | --- | --- | --- | --- | --- | --- | --- | --- | --- | --- | --- |
| Cc1cnc(N[C@H]2CC[C@H](O)CC2)nc1-c1cnc2ccc(-c3ccccc3)cn12 [Compound 105, (1r,4r)-4-((5-Methyl-4-(6-phenylimidazo[1,2-a]pyridin-3-yl)pyrimidin-2-yl)amino)cyclohexan-1-ol] | 15 | 3 | 7 | 94 | 0.188 | 93 | 0.748 ± 0.063 |  |  |  |  |  |
| Cc1cnc(N[C@H]2CC[C@H](O)CC2)nc1-c1cnc2ccc(Nc3cccnc3)cn12 [Compound 106, (1r,4r)-4-((5-Methyl-4-(6-(pyridin-3-ylamino)imidazo [1,2-a]pyridin-3-yl)pyrimidin-2-yl)amino)cyclohexan-1-ol] | 25 | 2 | 5 | 71 | 0.042 | 43 | 0.851 ± 0.048 |  |  |  |  |  |
| Cc1cnc(N[C@H]2CC[C@H](O)CC2)nc1-c1cnc2ccccn12 [Compound 107, (1r,4r)-4-((4-(Imidazo[1,2-a]pyridin-3-yl)-5-methylpyrimidin-2-yl)amino)cyclohexan-1-ol] | 34 | 5 | 47 | 54 | 0.161 | 37 | 1.42 ± 0.652 |  |  |  |  |  |
| Cc1cnc(N[C@H]2CC[C@H](O)CC2)nc1-c1cnc2ccc(Nc3cncnc3)cn12 [Compound 108, (1r,4r)-4-((5-Methyl-4-(6-(pyrimidin-5-ylamino)imidazo [1,2-a]pyridin-3-yl)pyrimidin-2-yl)amino)cyclohexan-1-ol] |  |  |  | 68 | 0.018 | 70 | > 10 | 4.76 | 0.035 | 0.16 |  |  |
| Cc1cnc(NC2CCC(NCC(F)(F)F)CC2)nc1-c1cnc2ccc(Nc3cncnc3)cn12 (centres unmarked) [Compound 112, N^1-(5-Methyl-4-(6-(pyrimidin-5-ylamino)imidazo[1,2-a]pyridin-3-yl)pyrimidin-2-yl)-N^4-(2,2,2-trifluoroethyl) cyclohexane-1,4-diamine] |  |  |  | 45 | 0.205 |  | 2.55 ± 1.7 | > 5 | 0.49 | 1.73 | > 5 |  |

Second part, the compound after the results:

| remaining activity at 10 µM (CDKs and other kinases [1]) [%] | remaining activity at 10 µM (CDKs and other kinases [2]) [%] | remaining activity at 10 µM (CDKs and other kinases [3]) [%] | remaining activity at 10 µM (CDK6/D3) [%] | Ki (CDK9/T1) [µM] | remaining activity at 10 µM (CDK4/D1) [%] | GI50 (leukemia cell lines) [µM] | Ki (CDKs and other kinases [1]) [µM] | Ki (CDKs and other kinases [2]) [µM] | Ki (CDKs and other kinases [3]) [µM] | Ki (CDK4/D1) [µM] | Ki (CDK6/D3; read-out: CDK inhibition, Ki (μM) CDK6D3) [µM] | Structure (SMILES) |
| --- | --- | --- | --- | --- | --- | --- | --- | --- | --- | --- | --- | --- |
|  |  |  | 39 | 1.01 | 28 | > 10 | 2.59 | 0.45 | 0.82 |  |  | CC(=O)NC1CCC(Nc2ncc(C)c(-c3cnc4ccc(Nc5cncnc5)cn34)n2)CC1 (centres unmarked) [Compound 113, N-(4-((5-Methyl-4-(6-(pyrimidin-5-ylamino)imidazo [1,2-a]pyridin-3-yl)pyrimidin-2-yl)amino)cyclohexyl) acetamide] |
|  | 28 | 53 | 40 | 0.005 | 8 | 0.026 ± 0.009 | 0.075 |  |  |  |  | Cc1cnc(N[C@H]2CC[C@H](N)CC2)nc1-c1cnc2cc(C(F)(F)F)c(Br)cn12 [Compound 114, (1r,4r)-N^1-(4-(6-Bromo-7-(trifluoromethyl)imidazo [1,2-a]pyridin-3-yl)-5-methylpyrimidin-2-yl) cyclohexane-1,4-diamine] |
|  |  |  |  | 0.006 |  | 0.552 ± 0.166 | 4 | 0.14 | 1.35 | 1.24 | 1.11 | Cc1cnc(N[C@H]2CC[C@H](N)CC2)nc1-c1cnc2ccc(Nc3cncnc3)cn12 [Compound 115, (1r,4r)-N^1-(5-Methyl-4-(6-(pyrimidin-5-ylamino)imidazo [1,2-a]pyridin-3-yl)pyrimidin-2-yl)cyclohexane-1,4-diamine] |
